Measured values: patent US9738684B2, “N-terminally modified linear and branched polyamine conjugated peptidomimetics as antimicrobials agents” (COUNCIL OF SCIENTIFIC & INDUSTRIAL RESEARCH, priority 2015, dated 2017)
In brackets after ≈: the same amount, converted by molar mass.

Tests used:
[1] = tested on: methicillin resistant S. aureus (ATCC 33591); test: MIC, serial broth dilution; type: cell-based, Staphylococcus aureus; conditions: 18 h
Procedure: (§1) The peptidomimetics designed in present invention were evaluated as antibacterial therapeutics against a broad range of bacterial strains by broth microdilution method. The antibacterial activity of the peptidomimetics was reported in terms of the minimum inhibitory concentrations (MIC).
(§2) Following bacterial strains were used in this study: S. aureus (ATCC 29213), methicillin resistant S. aureus (ATCC 33591), Staphylococcus epidermidis (ATCC 12228), methicillin resistant Staphylococcus epidermidis(ATCC 51625), Enterococcus faecalis (ATCC 7080), Escherichia coli (ATCC 11775), and Acinetobacter baumannii (ATCC 19606). Antibacterial activity was evaluated using a modified serial broth dilution method in accordance with Clinical Laboratory Standard Institute guidelines [Methods for dilution antimicrobial susceptibility tests for bacteria that grow aerobically-7th ed. Approved standard M7-A7. Clinical and Laboratory Standards Institute, Wayne, Pa., Biochim. Biophys. Acta 1798:1864-1875, 2010.]. Briefly, the inoculums were prepared from mid-log phase bacterial cultures. Peptidomimetics were incubated with bacterial suspension in Muller Hinton broth media (10^5 CFU/mL) in 96 well microtitre plate. The plates were incubated overnight with agitation (200 rpm) at 37° C. After 18 h, absorbance was measured at 630 nm. Cultures without test peptidomimetics were used as positive control. Un-inoculated Mueller Hinton Broth (MHB) was used as negative control. Tests were carried out in duplicate on at least three different days. […] For comparison standard peptide antibiotics vancomycin (VAN) and polymyxin B (PMB) were also assayed under identical conditions (Table 2). […] Further, antibacterial activity of active peptidomimetics 1c and 1d were also evaluated against MRSA in presence of 25% v/v human serum as well as bovine serum.

S. aureus (ATCC 29213) = test: MIC, serial broth dilution; type: cell-based, Staphylococcus aureus
Procedure: as §1, §2

[2] = tested on: Gram-positive bacterial strains; test: Antibacterial activity; type: cell-based
Procedure: as §2

[3] = tested on: Staphylococcus epidermidis (ATCC 12228); test: MIC, serial broth dilution; type: cell-based
Procedure: as §1, §2

[4] = tested on: Enterococcus faecalis (ATCC 7080); test: MIC, serial broth dilution; type: cell-based; conditions: MHB, 18 h, 37° C.
Procedure: as §1, §2

[5] = tested on: human red blood cells (hRBC); test: Hemolytic activity; type: cell-based; conditions: 250 μg/mL, 1 h at 37° C.
Procedure: Hemolytic activity of the peptidomimetics was evaluated on human red blood cells (hRBC) as described previously with minor modifications [FEBS J, 273:4040-4054, 2006; Biochim Biophys Acta., 1798:1864-1875, 2010]. Briefly, 100 μL of fresh hRBC suspension 4% v/v in NaCl/Pi (35 mM phosphate buffer, 150 mM NaCl, pH 7.2) was placed in a 96-well plate. After incubation of the peptidomimetics (100 μL) in the hRBC suspension for 1 h at 37° C., the plates were centrifuged and supernatant (100 μL) was transferred to fresh 96-well plate. Absorbance was read at 540 nm using ELISA plate reader (Molecular Devices). Percent hemolysis was calculated using the following formula: % hemolysis=100[(A−A0)/(At−A0)]
Where, A represents absorbance of sample wells at 540 nm. Also A0 and At represents 0% and 100% hemolysis determined in NaCl/Pi and 1% Triton X-100, respectively (Table 2). […] Peptidomimetics 1e and 1f caused 31% and 30% hemolysis at 250 μg/mL. Peptidomimetics 2d, 2e and 2f caused significant hemolysis with 83%, 96% and 88% damage to hRBCs at […] respectively.

MRSA = test: Membrane depolarization with DiSC3(5) dye; type: cell-based, Staphylococcus aureus; conditions: up to the highest concentration tested
Procedure: For determination of membrane depolarizing ability of designed peptidomimetics, a membrane potential sensitive dye DiSC3(5) was used as described previously with minor modifications [Org Biomol. Chem. 10: 8326-8335, 2012; J. Am. Chem. Soc., 132: 18417-18428, 2010.]. Briefly, overnight grown MRSA was sub cultured into MHB for 2-3 h at 37° C. to obtain mid-log phase cultures. The cells were centrifuged at 4000 rpm for 10 min at 25° C., washed, and re-suspended into respiration buffer (5 mM HEPES, 20 mM glucose, pH 7.4) to obtain a diluted suspension of OD600˜0.05. Then DiSC3(5) [0.18 μM in DMSO], was added to 500 μL aliquotes of the re-suspended cells and allowed to stabilize for 1 h. Baseline fluorescence was acquired using a Edinburg F900 spectrofluorometer by excitation at 622 nm and emission at 670 nm in a 1 cm path length cuvette. Bandwidth of 5 nm was employed for excitation and emission. Subsequently, increasing concentrations of test peptidomimetics were added to the stabilized cells and the increase of fluorescence on account of the de-quenching of DiSC3(5) dye was measured after every 2 min to obtain the maximal depolarization. Increase in relative fluorescence unit (RFU) was plotted against increasing concentrations of different peptidomimetics or PMB. […] The increase in fluorescence for lipid tagged peptidomimetics was concentration dependent up to 9.9 μg/mL and henceforth, got saturated resulting into plateau like dose response curves. The experiment was repeated twice on two consecutive days and produced similar results.

[6] = tested on: MRSA (ATCC 33591) biofilm; test: Confocal laser scanning microscopy of biofilm, thickness by z-stacking; type: cell-based, Staphylococcus aureus; conditions: for confocal observation of mature biofilm: 24 h preformed biofilm
From the text: For visualization of biofilm and validation of AB and CV assay we performed confocal microscopy. For this biofilm formation was induced on glass cover slips in a 6-well plate. The biofilm on cover slips were washed twice with sterile NaCl/Pi buffer and stained with a Live/Dead kit reagent (Invitrogen, Molecular Probes, Eugene, Oreg., USA) following the manufacturer's instructions. This stain contains DNA binding dyes SYTO 9 (green fluorescent) and propidium iodide (PI; red fluorescent). When used alone, SYTO 9 stains all bacteria in a population, those with intact as well as damaged membranes. In contrast, PI penetrates only bacteria with damaged membranes, causing a reduction in the SYTO 9 stain (green fluorescence). The biofilms were examined with an Olympus flow view FV1000 (confocal laser scanning microscope, CLSM). The experiment was repeated three times on three different days and representative data is presented here.
We next measured the thickness of biofilm using z-stacking in confocal microscopy. […] At MICb, 1c and 1d prevented formation of biofilm in which very few cells were adhered to substratum with observed average thickness of 3.9±1.1 μm and 3.5±0.6 μm, respectively. Furthermore, at sub-MICb concentration the observed thicknesses were 5.2±0.3 μm and 5.8±0.4 μm (FIG. 7A.b and FIG. 7A.d).

MRSA (ATCC 33591) = test: Planktonic MIC in biofilm media (MICb); type: cell-based, Staphylococcus aureus; conditions: TSB with 0.5% NaCl and 0.25% glucose
Staphylococcus species = test: Antibacterial activity; type: cell-based
Procedure: as §2

[7] = tested on: Gram-negative bacterial strains; test: Antibacterial activity; type: cell-based
Procedure: as §2

[8] = tested on: methicillin resistant Staphylococcus epidermidis (ATCC 51625); test: MIC, serial broth dilution; type: cell-based; conditions: Staphylococcus epidermidis, ATCC 51625 / MRSE, 18 h, read-out: MIC MRSE (ATCC 51625)
Procedure: as §1, §2

[9] = tested on: Acinetobacter baumannii (ATCC 19606); test: MIC, serial broth dilution; type: cell-based; conditions: Acinetobacter baumannii, ATCC19606, 18 h, read-out: MIC A. baumannii (ATCC 19606)
Procedure: as §1, §2

[10] = tested on: Escherichia coli (ATCC 11775); test: MIC, serial broth dilution; type: cell-based; conditions: Escherichia coli, ATCC11775, 18 h, read-out: MIC E. coli. (ATCC 11775)
Procedure: as §1, §2

S. aureus (ATCC 33591) = test: Resistance development study, serial passage at sub MIC; type: cell-based, Staphylococcus aureus; conditions: 17 serial passages at sub MIC
Procedure: FIG. 5: Illustration of resistance development study in S. aureus (ATCC 33591) after 17 serial passages with sub MIC of 1c/1d or antibiotic treatment. The fold change in MIC is the ratio of the MIC after 17 passages relative to that MIC observed before first passage.
To determine potential of active peptidomimetics against resistance development, in vitro serial passage method at sub inhibitory concentration was done. Briefly, bacterial suspension (100 μL) from duplicate wells at the concentration of sub-MIC was used to inoculate fresh culture. The culture was grown to obtain approximately 10^5 CFU/mL for the next experiment. These bacterial suspensions were then incubated with desired concentration of antibacterial agents for 18 h to determine new MIC. The same sub culturing protocol was used for next 16 passages and MIC was determined using OD630 nm as described previously in the text [Chem. Biol., 20:1286-1295, 2013.]

[11] = tested on: MRSA (ATCC 33591) biofilm; test: 24 h preformed mature biofilm (alamar blue, crystal violet); type: cell-based, Staphylococcus aureus; conditions: Staphylococcus aureus, 24 h, read-out: viable cells in 24 h pre-formed mature biofilm (alamar blue)
Procedure: To evaluate potential of designed active peptidomimetics against MRSA biofilms a methodology as used previously was employed with minor modifications [Antimicrob. Agents Chemother., 57:2726-2737, 2013]. Briefly, freshly inoculated MRSA (ATCC 33591) was grown in biofilm growth media (TSB supplemented with 0.5% w/v NaCl and 0.25% w/v glucose) overnight. Next day, the culture was diluted in fresh biofilm growth media to 10^5 CFU/mL. 200 μl of diluted culture was dispensed in wells of a 96-well polystyrene plate for biofilm formation. […] Biofilm cultures were re-incubated at 37° C. for 24 h. After removal of medium, the biofilms were further washed twice with sterile NaCl/Pi buffer and assessed for metabolic activity (alamar blue assay) and biomass quantification (Crystal violet assay).

## NCCCNCCCCNCCCNC(=O)C(Cc1c[nH]c2ccccc12)NC(=O)C(N)Cc1c[nH]c2ccccc12 (stereo not shown) [1a]
[1]; MHB, 37° C.
  MIC MRSA (ATCC 33591): 227.2 µg/mL (≈ 395 µM)
S. aureus (ATCC 29213); MHB, 18 h, 37° C.
  MIC S. aureus (ATCC 29213): 0.1136 µg/mL (≈ 0.198 µM)
[2]
  activity against Gram-positive bacterial strains: moderate activity
[3]; MHB, 18 h, 37° C.
  MIC S. epidermidis (ATCC 12228): 113.6 µg/mL (≈ 198 µM)
[4]
  MIC E. facaelis (ATCC 7080): 0.4545 µg/mL (≈ 0.791 µM)
[5]
  % H, percentage hemolysis of human RBCs: 4%
MRSA
  change in relative fluorescence unit (RFU), membrane depolarization: only minor increase

## CN[C@H](CC(C)C)C(=O)N[C@H]1C(=O)N[C@@H](CC(N)=O)C(=O)N[C@H]2C(=O)N[C@H]3C(=O)N[C@H](C(=O)N[C@H](C(=O)O)c4cc(O)cc(O)c4-c4cc3ccc4O)[C@H](O)c3ccc(c(Cl)c3)Oc3cc2cc(c3O[C@@H]2O[C@H](CO)[C@@H](O)[C@H](O)[C@H]2O[C@H]2C[C@](C)(N)[C@H](O)[C@H](C)O2)Oc2ccc(cc2Cl)[C@H]1O [VAN, vancomycin, reference compound]
[6]; 10×MICb
  confocal observation of mature biofilm: little effect
[6]; 20×MICb
  confocal observation of mature biofilm: slight decrease in the height of mature biofilm
[6]; MICb, control 14.3±1.4 μm
  average thickness of biofilm, biofilm formation: 11.4±2.9 μm
[6]; sub-MICb, control 14.3±1.4 μm
  thickness of biofilm, biofilm formation: unable to reduce biofilm thickness
MRSA (ATCC 33591)
  MICb, planktonic MIC in biofilm media: 0.8 µg/mL
[1]; Staphylococcus aureus, ATCC 33591 / MRSA, read-out: MIC MRSA (ATCC 33591)
  MIC: 0.0008 µg/mL (≈ 0.000552 µM)
S. aureus (ATCC 29213); Staphylococcus aureus, ATCC29213, 18 h, read-out: MIC S. aureus (ATCC 29213)
  MIC: 0.0004 µg/mL (≈ 0.000276 µM)
Staphylococcus species
  activity against Staphylococcus species: potent growth inhibition
[7]
  growth inhibition of Gram-negative bacterial strains: ineffective
[3]; Staphylococcus epidermidis, ATCC12228, 18 h, read-out: MIC S. epidermidis (ATCC 12228)
  MIC: 0.0004 µg/mL (≈ 0.000276 µM)
[8]
  MIC: 0.0008 µg/mL (≈ 0.000552 µM)
[9]
  MIC: 0.0568 µg/mL (≈ 0.0392 µM)
[10]
  MIC: 0.114 µg/mL (≈ 0.0784 µM)
S. aureus (ATCC 33591)
  increase in MIC after 17 passages: 4 fold
[11]
  viability at 20 µg/mL: 77.7 ± 7%
